# Assay results taken from PubChem BioAssay AID220 (DTP/NCI, 2004).
# Values joined by “and” are separate entries in the source; they are usually repeats but may differ in a detail not shown here. Identical values can stand only once. Inconclusive results are not listed.
# Test system: CD8F1 mice, subcutaneous mammary adenocarcinoma, T/C%
# Test: NCI In Vivo Anticancer Drug Screen. Data for tumor model Mammary Adenocarcinoma CD8F1 (subcutaneous) in CD8F1
# Conditions: higher = larger tumour
# Method: The antitumor activity of compounds was measured in mice bearing transplantable tumors. Survival or tumor size were measured and the results are expressed as the measurement made in the treated group (T) divided by the measurement made in the vehicle treated control group (C). The tumor model used in this assay is Mammary Adenocarcinoma CD8F1 (subcutaneous) in CD8F1
# [1] = endpoint: median tumor weight (est.), dose: 12.5 mg/kg/injection, schedule: Q07DX005 (ip), vehicle: Klucel (hydroxypropylcellulose) (HPC)
# [2] = endpoint: median tumor weight (est.), dose: 200.0 mg/kg/injection, schedule: Q07DX005 (ip), vehicle: Klucel (hydroxypropylcellulose) (HPC)
# [3] = endpoint: median tumor weight (est.), dose: 400.0 mg/kg/injection, schedule: Q07DX005 (ip), vehicle: Klucel (hydroxypropylcellulose) (HPC)
# [4] = endpoint: median tumor weight (est.), dose: 50.0 mg/kg/injection, schedule: Q07DX005 (ip), vehicle: Klucel (hydroxypropylcellulose) (HPC)
# [5] = endpoint: median tumor weight (est.), dose: 100.0 mg/kg/injection, schedule: Q07DX005 (ip), vehicle: Klucel (hydroxypropylcellulose) (HPC)
# [6] = endpoint: median tumor weight (est.), dose: 12.5 mg/kg/injection, schedule: Q07DX005 (ip), vehicle: saline
# [7] = endpoint: median tumor weight (est.), dose: 25.0 mg/kg/injection, schedule: Q07DX005 (ip), vehicle: saline
# [8] = endpoint: median tumor weight (est.), dose: 50.0 mg/kg/injection, schedule: Q07DX005 (ip), vehicle: saline
# [9] = endpoint: median tumor weight (est.), dose: 100.0 mg/kg/injection, schedule: Q07DX005 (ip), vehicle: saline
# [10] = endpoint: median tumor weight (est.), dose: 200.0 mg/kg/injection, schedule: Q07DX005 (ip), vehicle: saline
# [11] = endpoint: median tumor weight (est.), dose: 400.0 mg/kg/injection, schedule: Q07DX005 (ip), vehicle: saline
# [12] = endpoint: median tumor weight (est.), dose: 12.5 mg/kg/injection, schedule: Q07DX005 (ip), vehicle: suspension in saline
# [13] = endpoint: median tumor weight (est.), dose: 25.0 mg/kg/injection, schedule: Q07DX005 (ip), vehicle: suspension in saline
# [14] = endpoint: median tumor weight (est.), dose: 50.0 mg/kg/injection, schedule: Q07DX005 (ip), vehicle: suspension in saline
# [15] = endpoint: median tumor weight (est.), dose: 100.0 mg/kg/injection, schedule: Q07DX005 (ip), vehicle: suspension in saline
# [16] = endpoint: median tumor weight change, dose: 50.0 mg/kg/injection, schedule: Q01DX001 (ip), vehicle: saline
# [17] = endpoint: median tumor weight change, dose: 100.0 mg/kg/injection, schedule: Q01DX001 (ip), vehicle: saline
# [18] = endpoint: median tumor weight change, dose: 200.0 mg/kg/injection, schedule: Q01DX001 (ip), vehicle: saline
# [19] = endpoint: median tumor weight change, dose: 800.0 mg/kg/injection, schedule: Q01DX001 (ip), vehicle: saline
smiles,measurement,setting,value
C=C(NC(=O)C(=C)NC(=O)c1csc(C2=NC3c4csc(n4)C4NC(=O)c5csc(n5)C(C(C)(O)C(C)O)NC(=O)C5CSC(=N5)/C(=C/C)NC(=O)C(C(C)O)NC(=O)c5csc(n5)C3(CC2)NC(=O)C(C)NC(=O)C(=C)NC(=O)C(C)NC(=O)C(C(C)CC)NC2C=Cc3c(C(C)O)cc(nc3C2O)C(=O)OC4C)n1)C(N)=O (stereo unspecified),T/C,"endpoint: median tumor weight (est.), dose: 6.25 mg/kg/injection, schedule: Q07DX005 (ip), vehicle: Klucel (hydroxypropylcellulose) (HPC)",72 % of control
same,T/C,[1],64 % of control and 70 % of control
same,T/C,[2],83 % of control and 103 % of control
same,T/C,[3],90 % of control
[I][Hg][CH2]C1OCCOC1[CH2][Hg][I] (stereo unspecified),T/C,[1],96 % of control
same,T/C,"endpoint: median tumor weight (est.), dose: 25.0 mg/kg/injection, schedule: Q07DX005 (ip), vehicle: Klucel (hydroxypropylcellulose) (HPC)",100 % of control
same,T/C,[4],85 % of control
same,T/C,[5],76 % of control
same,T/C,[2],52 % of control
C=C(Cl)C(=NC(C)(C)C)Nc1ccccc1C,T/C,"endpoint: median tumor weight change, dose: 31.25 mg/kg/injection, schedule: Q01DX001 (ip), vehicle: Klucel (hydroxypropylcellulose) (HPC)",86 % of control
same,T/C,"endpoint: median tumor weight change, dose: 62.5 mg/kg/injection, schedule: Q01DX001 (ip), vehicle: Klucel (hydroxypropylcellulose) (HPC)",85 % of control
O=c1[nH]c(=O)c2nc(-c3cccnc3)cnc2[nH]1,T/C,[6],122 % of control
same,T/C,[7],93 % of control
same,T/C,[8],58 % of control
same,T/C,[9],93 % of control
same,T/C,[10],90 % of control
same,T/C,[11],62 % of control
O=C1N(Cl)C(=O)C(c2ccc(Cl)cc2)(c2ccc(Cl)cc2)N1Cl,T/C,"endpoint: median tumor weight (est.), dose: 12.5 mg/kg/injection, schedule: Q07DX005 (ip), vehicle: saline with Tween-80",98 % of control
same,T/C,"endpoint: median tumor weight (est.), dose: 25.0 mg/kg/injection, schedule: Q07DX005 (ip), vehicle: saline with Tween-80",119 % of control
same,T/C,"endpoint: median tumor weight (est.), dose: 50.0 mg/kg/injection, schedule: Q07DX005 (ip), vehicle: saline with Tween-80",91 % of control
same,T/C,"endpoint: median tumor weight (est.), dose: 100.0 mg/kg/injection, schedule: Q07DX005 (ip), vehicle: saline with Tween-80",104 % of control
same,T/C,"endpoint: median tumor weight (est.), dose: 200.0 mg/kg/injection, schedule: Q07DX005 (ip), vehicle: saline with Tween-80",113 % of control
same,T/C,"endpoint: median tumor weight (est.), dose: 400.0 mg/kg/injection, schedule: Q07DX005 (ip), vehicle: saline with Tween-80",43 % of control
same,T/C,"endpoint: median tumor weight change, dose: 12.5 mg/kg/injection, schedule: Q01DX001 (ip), vehicle: saline with Tween-80",98 % of control
same,T/C,"endpoint: median tumor weight change, dose: 25.0 mg/kg/injection, schedule: Q01DX001 (ip), vehicle: saline with Tween-80",68 % of control
same,T/C,"endpoint: median tumor weight change, dose: 50.0 mg/kg/injection, schedule: Q01DX001 (ip), vehicle: saline with Tween-80",71 % of control
same,T/C,"endpoint: median tumor weight change, dose: 100.0 mg/kg/injection, schedule: Q01DX001 (ip), vehicle: saline with Tween-80",45 % of control and 48 % of control
same,T/C,"endpoint: median tumor weight change, dose: 200.0 mg/kg/injection, schedule: Q01DX001 (ip), vehicle: saline with Tween-80",44 % of control and 53 % of control
same,T/C,"endpoint: median tumor weight change, dose: 400.0 mg/kg/injection, schedule: Q01DX001 (ip), vehicle: saline with Tween-80",24 % of control
c1ccc(CN2CCOC2)cc1,T/C,[12],51 % of control
same,T/C,[13],43 % of control
same,T/C,[14],62 % of control
same,T/C,[15],87 % of control
CCNC(=O)[B-][N+](C)(C)C,T/C,"endpoint: median tumor weight change, dose: 50.0 mg/kg/injection, schedule: Q01DX001 (ip), vehicle: Klucel (hydroxypropylcellulose) (HPC)",101 % of control
same,T/C,"endpoint: median tumor weight change, dose: 100.0 mg/kg/injection, schedule: Q01DX001 (ip), vehicle: Klucel (hydroxypropylcellulose) (HPC)",108 % of control
same,T/C,"endpoint: median tumor weight change, dose: 200.0 mg/kg/injection, schedule: Q01DX001 (ip), vehicle: Klucel (hydroxypropylcellulose) (HPC)",97 % of control
same,T/C,"endpoint: median tumor weight change, dose: 400.0 mg/kg/injection, schedule: Q01DX001 (ip), vehicle: Klucel (hydroxypropylcellulose) (HPC)",72 % of control
OC(CCl)CN1CC[N+]2(CC1)CC[N+]1(CCN(CC(O)CCl)CC1)CC2 (stereo unspecified),T/C,[6],57 % of control
same,T/C,[7],67 % of control
same,T/C,[8],80 % of control
same,T/C,[9],43 % of control
same,T/C,[10],36 % of control
same,T/C,[11],11 % of control
same,T/C,[16],101 % of control
same,T/C,[17],111 % of control
same,T/C,[18],96 % of control and 119 % of control
same,T/C,[19],49 % of control and 56 % of control
CNC=O,T/C,"endpoint: median tumor weight change, dose: 25.0 mg/kg/injection, schedule: Q01DX001 (ip), vehicle: saline",54 % of control
same,T/C,[16],75 % of control
same,T/C,[17],59 % of control
same,T/C,"endpoint: median tumor weight change, dose: 200.0 mg/kg/injection, schedule: Q01DX001 (ip), vehicle: saline sonified",48 % of control
same,T/C,[18],72 % of control
same,T/C,[19],154 % of control
same,T/C,"endpoint: median tumor weight change, dose: 1600.0 mg/kg/injection, schedule: Q01DX001 (ip), vehicle: saline",71 % of control
same,T/C,"endpoint: median tumor weight change, dose: 3200.0 mg/kg/injection, schedule: Q01DX001 (ip), vehicle: saline",108 % of control
CN(C)N=Nc1ccc(S(N)(=O)=O)cc1,T/C,[1],225 % of control and 117 % of control
same,T/C,[4],213 % of control and 73 % of control
same,T/C,[5],72 % of control and 93 % of control
same,T/C,[2],48 % of control
same,T/C,[3],22 % of control
[N-]=[N+]=CC(=O)CCC(N)C(=O)O (stereo unspecified),T/C,"endpoint: median tumor weight (est.), dose: 3.12 mg/kg/injection, schedule: Q04DX005 (ip), vehicle: saline",22 % of control and 43 % of control
same,T/C,"endpoint: median tumor weight (est.), dose: 6.25 mg/kg/injection, schedule: Q04DX005 (ip), vehicle: saline",31 % of control and 56 % of control
same,T/C,"endpoint: median tumor weight (est.), dose: 12.5 mg/kg/injection, schedule: Q04DX005 (ip), vehicle: saline",30 % of control and 50 % of control
same,T/C,"endpoint: median tumor weight (est.), dose: 12.5 mg/kg/injection, schedule: Q07DX004 (ip), vehicle: saline",85 % of control and 105 % of control
same,T/C,[6],23 % of control and 30 % of control
same,T/C,"endpoint: median tumor weight (est.), dose: 25.0 mg/kg/injection, schedule: Q01DX001 (ip), vehicle: saline",35 % of control
same,T/C,"endpoint: median tumor weight (est.), dose: 25.0 mg/kg/injection, schedule: Q07DX004 (ip), vehicle: saline",23 % of control and 34 % of control
same,T/C,[7],47 % of control
same,T/C,"endpoint: median tumor weight (est.), dose: 50.0 mg/kg/injection, schedule: Q01DX001 (ip), vehicle: saline",35 % of control
same,T/C,"endpoint: median tumor weight (est.), dose: 50.0 mg/kg/injection, schedule: Q07DX004 (ip), vehicle: saline",21 % of control and 31 % of control
same,T/C,[8],16 % of control and 33 % of control
same,T/C,"endpoint: median tumor weight (est.), dose: 100.0 mg/kg/injection, schedule: Q01DX001 (ip), vehicle: saline",43 % of control
same,T/C,[9],6 % of control
CCN(CC)CCOCCO,T/C,"endpoint: median tumor weight change, dose: 62.5 mg/kg/injection, schedule: Q01DX001 (ip), vehicle: saline",151 % of control
same,T/C,"endpoint: median tumor weight change, dose: 125.0 mg/kg/injection, schedule: Q01DX001 (ip), vehicle: saline",172 % of control
same,T/C,"endpoint: median tumor weight change, dose: 250.0 mg/kg/injection, schedule: Q01DX001 (ip), vehicle: saline",65 % of control
Oc1ccccc1C=NCCC[N-]CCCN=Cc1ccccc1O.[Co],T/C,[12],162 % of control
same,T/C,[13],223 % of control
same,T/C,[14],180 % of control
same,T/C,[15],97 % of control
CC1/C=C/C=C/CC/C=C/C=C/C=C/C=C/C(OC2OC(C)C(O)C(N)C2O)CC2OC(CC(O)C(O)CCC(O)CC(O)CC(O)CC(=O)OC(C)C(C)C1O)CC(O)C2C(=O)O (stereo unspecified),T/C,"endpoint: median tumor weight change, dose: 31.25 mg/kg/injection, schedule: Q01DX001 (ip), vehicle: saline with Tween-80",124 % of control
same,T/C,"endpoint: median tumor weight change, dose: 62.5 mg/kg/injection, schedule: Q01DX001 (ip), vehicle: saline with Tween-80",84 % of control
CC(C)NC(=O)OCc1c(COC(=O)NC(C)C)c(-c2ccc(Cl)c(Cl)c2)n2c1CCC2,T/C,"endpoint: median tumor weight (est.), dose: 12.5 mg/kg/injection, schedule: Q07DX005 (ip), vehicle: distilled water + Tween-80",67 % of control
same,T/C,"endpoint: median tumor weight (est.), dose: 25.0 mg/kg/injection, schedule: Q07DX005 (ip), vehicle: distilled water + Tween-80",120 % of control
same,T/C,"endpoint: median tumor weight (est.), dose: 50.0 mg/kg/injection, schedule: Q07DX005 (ip), vehicle: distilled water + Tween-80",21 % of control
same,T/C,"endpoint: median tumor weight (est.), dose: 100.0 mg/kg/injection, schedule: Q07DX005 (ip), vehicle: distilled water + Tween-80",6 % of control
